From patent publication US12077503B2, “Substituted cyclic amides and their use as herbicides” (FMC CORPORATION, priority 2015, dated 2024)

Assays:
Assay type in all cases: in vivo
Kochia (Kochia scoparia) [1] = test: Test A preemergence; settings: for Plant response rating, Kochia: 125 g ai/ha, preemergence, 0 to 100 scale (0 no effect, 100 complete control); for Kochia plant response rating (0 to 100 scale, 0 is no effect, 100 is complete control): Preemergence, 500 g ai/ha, visual injury approx. 10 d
How it was run: (§1)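 Preemergence directed soil spray on seeded pots, or postemergence application to plants 2–10 cm, one- to two-leaf. Solvent mixture non-phytotoxic, with surfactant. Scored ~10 d later, visually, 0–100 vs untreated.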

[2] = tested on: barnyardgrass (Echinochloa crus-galli); test: Test A preemergence; settings: for Plant response rating, Barnyardgrass: 125 g ai/ha, preemergence, 0 to 100 scale (0 no effect, 100 complete control); for Barnyardgrass plant response rating (0 to 100 scale, 0 is no effect, 100 is complete control): Preemergence, 500 g ai/ha, visual injury approx. 10 d
How it was run: as §1

[3] = tested on: giant foxtail (Setaria faberii); test: Test A preemergence; settings: for Plant response rating, Foxtail, Giant: 125 g ai/ha, preemergence, 0 to 100 scale (0 no effect, 100 complete control); for Foxtail, Giant plant response rating (0 to 100 scale, 0 is no effect, 100 is complete control): Preemergence, 500 g ai/ha, visual injury approx. 10 d
How it was run: as §1

[4] = tested on: pigweed (Amaranthus retroflexus); test: Test A preemergence; settings: for Plant response rating, Pigweed: 125 g ai/ha, preemergence, 0 to 100 scale (0 no effect, 100 complete control); for Pigweed plant response rating (0 to 100 scale, 0 is no effect, 100 is complete control): Preemergence, 500 g ai/ha, visual injury approx. 10 d
[5] = tested on: ragweed (common ragweed, Ambrosia elatior); test: Test A preemergence; settings: for Plant response rating, Ragweed: 125 g ai/ha, preemergence, 0 to 100 scale (0 no effect, 100 complete control); for Ragweed plant response rating (0 to 100 scale, 0 is no effect, 100 is complete control): Preemergence, 500 g ai/ha, visual injury approx. 10 d
How it was run: as §1

[6] = tested on: ryegrass, Italian (Italian ryegrass, Lolium multiflorum); test: Test A preemergence; settings: for Plant response rating, Ryegrass, Italian: 125 g ai/ha, preemergence, 0 to 100 scale (0 no effect, 100 complete control); for Ryegrass, Italian plant response rating (0 to 100 scale, 0 is no effect, 100 is complete control): Preemergence, 500 g ai/ha, visual injury approx. 10 d
How it was run: as §1

[7] = tested on: Galium (catchweed bedstraw, Galium aparine); test: Test A postemergence; settings: postemergence; for Galium plant response rating: 125 g ai/ha, visual injury rating on 0 to 100 scale (0 no effect, 100 complete control), approx. 10 d; for Plant response rating, Galium: 500 g ai/ha, 0 to 100 scale, 0 no effect, 100 complete control
How it was run: as §1

Kochia (Kochia scoparia) [8] = test: Test A postemergence; settings: postemergence; for Kochia plant response rating: 125 g ai/ha, visual injury rating on 0 to 100 scale (0 no effect, 100 complete control), approx. 10 d; for Plant response rating, Kochia: 500 g ai/ha, 0 to 100 scale, 0 no effect, 100 complete control
How it was run: as §1

[9] = tested on: barnyardgrass (Echinochloa crus-galli); test: Test A postemergence; settings: postemergence; for Barnyardgrass plant response rating: 125 g ai/ha, visual injury rating on 0 to 100 scale (0 no effect, 100 complete control), approx. 10 d; for Plant response rating, Barnyardgrass: 500 g ai/ha, 0 to 100 scale, 0 no effect, 100 complete control
How it was run: as §1

[10] = tested on: blackgrass (Alopecurus myosuroides); test: Test A postemergence; settings: postemergence; for Blackgrass plant response rating: 125 g ai/ha, visual injury rating on 0 to 100 scale (0 no effect, 100 complete control), approx. 10 d; for Plant response rating, Blackgrass: 500 g ai/ha, 0 to 100 scale, 0 no effect, 100 complete control
How it was run: as §1

corn (Zea mays) = test: Test A postemergence; settings: postemergence; for Corn plant response rating: 125 g ai/ha, visual injury rating on 0 to 100 scale (0 no effect, 100 complete control), approx. 10 d; for Plant response rating, Corn: 500 g ai/ha, 0 to 100 scale, 0 no effect, 100 complete control
How it was run: as §1

[11] = tested on: giant foxtail (Setaria faberii); test: Test A postemergence; settings: postemergence; for Foxtail, Giant plant response rating: 125 g ai/ha, visual injury rating on 0 to 100 scale (0 no effect, 100 complete control), approx. 10 d; for Plant response rating, Foxtail, Giant: 500 g ai/ha, 0 to 100 scale, 0 no effect, 100 complete control
How it was run: as §1

[12] = tested on: pigweed (Amaranthus retroflexus); test: Test A postemergence; settings: postemergence; for Pigweed plant response rating: 125 g ai/ha, visual injury rating on 0 to 100 scale (0 no effect, 100 complete control), approx. 10 d; for Plant response rating, Pigweed: 500 g ai/ha, 0 to 100 scale, 0 no effect, 100 complete control
How it was run: as §1

[13] = tested on: ragweed (common ragweed, Ambrosia elatior); test: Test A postemergence; settings: postemergence; for Ragweed plant response rating: 125 g ai/ha, visual injury rating on 0 to 100 scale (0 no effect, 100 complete control), approx. 10 d; for Plant response rating, Ragweed: 500 g ai/ha, 0 to 100 scale, 0 no effect, 100 complete control
How it was run: as §1

[14] = tested on: ryegrass, Italian (Italian ryegrass, Lolium multiflorum); test: Test A postemergence; settings: postemergence; for Ryegrass, Italian plant response rating: 125 g ai/ha, visual injury rating on 0 to 100 scale (0 no effect, 100 complete control), approx. 10 d; for Plant response rating, Ryegrass, Italian: 500 g ai/ha, 0 to 100 scale, 0 no effect, 100 complete control
How it was run: as §1

[15] = tested on: wheat (Triticum aestivum); test: Test A postemergence; settings: postemergence; for Wheat plant response rating: 125 g ai/ha, visual injury rating on 0 to 100 scale (0 no effect, 100 complete control), approx. 10 d; for Plant response rating, Wheat: 500 g ai/ha, 0 to 100 scale, 0 no effect, 100 complete control
How it was run: as §1

[16] = tested on: barnyardgrass (Echinochloa crus-galli); test: Test B flooded paddy test; settings: Flood, 250 g ai/ha; 0 to 100 scale where 0 is no effect and 100 is complete control; 13 to 15 d
How it was run: (§2)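 Greenhouse paddy pots with 2-leaf stage plants received compound by direct addition to floodwater 3 cm deep, kept at that level. Scored visually at 13–15 d versus controls (0 no effect; 100 complete control).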

[17] = tested on: ducksalad (Heteranthera limosa); test: Test B flooded paddy test; settings: Flood, 250 g ai/ha; 0 to 100 scale where 0 is no effect and 100 is complete control; 13 to 15 d
How it was run: as §2

rice (Oryra sativa) = test: Test B flooded paddy test; settings: Flood, 250 g ai/ha; 0 to 100 scale where 0 is no effect and 100 is complete control; 13 to 15 d
How it was run: as §2

[18] = tested on: sedge, umbrella (small-flower umbrella sedge, Cyperus difformis); test: Test B flooded paddy test; settings: Flood, 250 g ai/ha; 0 to 100 scale where 0 is no effect and 100 is complete control; 13 to 15 d
How it was run: as §2

SMILES	Plant response rating, Kochia (Kochia (Kochia scoparia) [1])	Kochia plant response rating (0 to 100 scale, 0 is no effect, 100 is complete control) (Kochia (Kochia scoparia) [1])	Plant response rating, Barnyardgrass [2]	Barnyardgrass plant response rating (0 to 100 scale, 0 is no effect, 100 is complete control) [2]	Plant response rating, Foxtail, Giant [3]	Foxtail, Giant plant response rating (0 to 100 scale, 0 is no effect, 100 is complete control) [3]	Plant response rating, Pigweed [4]	Pigweed plant response rating (0 to 100 scale, 0 is no effect, 100 is complete control) [4]	Plant response rating, Ragweed [5]	Ragweed plant response rating (0 to 100 scale, 0 is no effect, 100 is complete control) [5]	Plant response rating, Ryegrass, Italian [6]	Ryegrass, Italian plant response rating (0 to 100 scale, 0 is no effect, 100 is complete control) [6]	Galium plant response rating [7]	Plant response rating, Galium [7]	Kochia plant response rating (Kochia (Kochia scoparia) [8])	Plant response rating, Kochia (Kochia (Kochia scoparia) [8])	Barnyardgrass plant response rating [9]	Plant response rating, Barnyardgrass [9]	Blackgrass plant response rating [10]	Plant response rating, Blackgrass [10]	also measured
O=C1NCC(c2ccc(Br)cc2)C1C(=O)Nc1cccc(F)c1 (stereo not drawn) [Compound 449]	20	40	50	90	80	90	0	20	0	0	20	0	0	50	20	40	30	80	0	20	Corn plant response rating (corn (Zea mays)): 0; Plant response rating, Corn (corn (Zea mays)): 0; Foxtail, Giant plant response rating [11]: 30; Plant response rating, Foxtail, Giant [11]: 80; Pigweed plant response rating [12]: 0; Plant response rating, Pigweed [12]: 20; Ragweed plant response rating [13]: 0; Plant response rating, Ragweed [13]: 0; Ryegrass, Italian plant response rating [14]: 0; Plant response rating, Ryegrass, Italian [14]: 20; Wheat plant response rating [15]: 0; Plant response rating, Wheat [15]: 0; Plant response rating, Barnyardgrass [16]: 40; Plant response rating, Ducksalad [17]: 98; Plant response rating, Rice (rice (Oryra sativa)): 0; Plant response rating, Sedge, Umbrella [18]: 0
O=C1NCC(c2ccc(Br)cc2)C1C(=O)Nc1ccccc1Cl (stereo not drawn) [Compound 453]	0	30	80	90	90	90	20	30	0	20	0	0	30	40	20	30	80	80	0	30	Corn plant response rating (corn (Zea mays)): 0; Plant response rating, Corn (corn (Zea mays)): 40; Foxtail, Giant plant response rating [11]: 80; Plant response rating, Foxtail, Giant [11]: 80; Pigweed plant response rating [12]: 0; Plant response rating, Pigweed [12]: 0; Ragweed plant response rating [13]: 0; Plant response rating, Ragweed [13]: 0; Ryegrass, Italian plant response rating [14]: 0; Plant response rating, Ryegrass, Italian [14]: 0; Wheat plant response rating [15]: 0; Plant response rating, Wheat [15]: 30; Plant response rating, Barnyardgrass [16]: 30; Plant response rating, Ducksalad [17]: 95; Plant response rating, Rice (rice (Oryra sativa)): 0; Plant response rating, Sedge, Umbrella [18]: 0
O=C(Nc1cccc(F)c1F)C1C(=O)N(c2ccccc2)CC1c1cccc(C(F)(F)F)c1 (stereo not drawn) [Compound 457]	0	0	0	0	0	0	0	0	0	0	0	0	0	0	0	0	0	0	0	0	Corn plant response rating (corn (Zea mays)): 0; Plant response rating, Corn (corn (Zea mays)): 0; Foxtail, Giant plant response rating [11]: 0; Plant response rating, Foxtail, Giant [11]: 0; Pigweed plant response rating [12]: 0; Plant response rating, Pigweed [12]: 0; Ragweed plant response rating [13]: 0; Plant response rating, Ragweed [13]: 0; Ryegrass, Italian plant response rating [14]: 0; Plant response rating, Ryegrass, Italian [14]: 0; Wheat plant response rating [15]: 0; Plant response rating, Wheat [15]: 0; Plant response rating, Barnyardgrass [16]: 0; Plant response rating, Ducksalad [17]: 0; Plant response rating, Rice (rice (Oryra sativa)): 0; Plant response rating, Sedge, Umbrella [18]: 0
